In paper PMC11467737, “Osteocalcin binds to a GPRC6A Venus fly trap allosteric site to positively modulate GPRC6A signaling” (FASEB BioAdvances, 2024):
Positions count from the first letter of the chain named. Bridge positions count the residues as written; N and C are the ends. Ends that are not written are not given here.

What was measured:
K352E/H355P hGPRC6A = target: T1, K352E/H355P hGPRC6A (Homo sapiens, UniProt Q5T6X5, H355P/K352E); assay: ERK activation in HEK-293 cells transfected with K352E/H355P hGPRC6A; type: cell-based; details: for ERK activation by Ocn small fragments: K352E/H355P double mutant, fragment at 20 nM, Figure 6D
T1 construct: expressed in transfected cells; host or cells: HEK-293, pcDNA3
T1 sequence (Q5T6X5 19-926 K352E/H355P): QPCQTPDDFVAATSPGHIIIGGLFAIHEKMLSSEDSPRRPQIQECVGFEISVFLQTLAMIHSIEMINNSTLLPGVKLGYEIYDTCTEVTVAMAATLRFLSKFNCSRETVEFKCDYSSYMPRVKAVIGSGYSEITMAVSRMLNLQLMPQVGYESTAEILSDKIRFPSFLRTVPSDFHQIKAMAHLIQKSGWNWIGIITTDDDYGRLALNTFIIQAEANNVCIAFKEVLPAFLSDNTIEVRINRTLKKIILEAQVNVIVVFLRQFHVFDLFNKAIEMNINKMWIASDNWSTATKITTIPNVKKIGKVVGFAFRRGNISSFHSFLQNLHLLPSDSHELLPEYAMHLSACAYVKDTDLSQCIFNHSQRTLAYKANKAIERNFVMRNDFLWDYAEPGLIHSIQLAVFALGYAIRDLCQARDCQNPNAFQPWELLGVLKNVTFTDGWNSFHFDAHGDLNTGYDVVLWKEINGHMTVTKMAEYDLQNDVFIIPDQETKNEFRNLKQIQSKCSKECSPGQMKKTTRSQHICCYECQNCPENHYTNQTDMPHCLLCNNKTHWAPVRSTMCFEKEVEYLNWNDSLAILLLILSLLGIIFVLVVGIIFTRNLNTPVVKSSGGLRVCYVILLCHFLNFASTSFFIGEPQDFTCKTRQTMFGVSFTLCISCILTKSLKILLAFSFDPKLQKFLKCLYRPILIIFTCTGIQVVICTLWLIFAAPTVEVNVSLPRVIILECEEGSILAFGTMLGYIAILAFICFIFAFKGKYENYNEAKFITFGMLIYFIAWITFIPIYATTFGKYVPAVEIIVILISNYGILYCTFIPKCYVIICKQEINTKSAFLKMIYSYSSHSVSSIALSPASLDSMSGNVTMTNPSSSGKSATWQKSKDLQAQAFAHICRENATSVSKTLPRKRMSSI
Description: (§1) All culture reagents were from Invitrogen (Waltham, MA, USA). Human embryonic kidney HEK‐293 cells were obtained from American Type Culture Collection and cultured in DMEM medium supplemented with 10% fetal bovine serum and 1% Penicillin/Streptomycin (P/S). Briefly, HEK‐293 cells transfected with/without human GPRC6A isoforms cDNA plasmids were starved by overnight incubation in serum‐free DMEM/F12 containing 0.1% bovine serum albumin (BSA) and stimulated with various ligands at different doses. ERK activation was assessed 20 min after treatment by using ERK1/2 (phospho‐T203/Y204) ELISA Kit (Invitrogen; Waltham, MA, USA) corrected for the amount of total ERK using ERK1/2 (Total) ELISA Kit (Invitrogen; Waltham, MA, USA) to measure ERK levels.
In‐vitro mutagenesis by PCR‐mediated recombination QuikChange II XL Site‐Directed Mutagenesis Kit (Agilent) was performed using the cDNA of human GPRC6A cloned in the vector pcDNA3 (Invitrogen) as a template. The primer sets are as follows. K352E.sen: […]; K352E.antisen: […]; H355P.sen: […]; H355P.antisen: […]; K352E/H355P.sen: […]; and K352E/H355P.antisen: […]. All mutants were confirmed by sequencing.

human GPRC6A isoform 1 = target: T2, human GPRC6A isoform 1 (Homo sapiens, UniProt Q5T6X5); assay: ERK activation (phospho-ERK/total ERK ELISA) in HEK-293 cells transfected with human GPRC6A isoform 1 (wild-type); type: cell-based; details: for ERK phosphorylation by synthesized human Ocn fragments: fragments at 20 nM, HEK-293 with pcDNA3-hGPRC6A, Figure 3B / S5B
T2 construct: expressed in transfected cells; host or cells: HEK-293, pcDNA3-hGPRC6A
T2 sequence (Q5T6X5 19-926): T1 sequence (Q5T6X5 19-926 K352E/H355P) with E334K, P337H
Description: as §1, with “ERK activation was assessed 20 min after treatment by using ERK1/2 (phospho‐T203/Y204) ELISA Kit (Invitrogen; Waltham, MA, USA) corrected for the amount of total ERK using ERK1/2 (Total) ELISA Kit (Invitrogen; Waltham, MA, USA) to measure ERK levels.” left out

Row | ERK phosphorylation, dose response of full-length Ocn, versus wild-type receptor (K352E/H355P hGPRC6A; K352E/H355P mutant, Figure 6B) | ERK phosphorylation, dose response of full-length Ocn (human GPRC6A isoform 1; WT hGPRC6A, Figure 6B) | ERK activation by Ocn small fragments (K352E/H355P hGPRC6A) | ERK phosphorylation by synthesized human Ocn fragments (human GPRC6A isoform 1; 15 min) | Substance | Ocn-induced ERK activation, dose response (human GPRC6A isoform 1; isoform 1, Ocn 1.73, 8.65, 17.3, 26.0 nM, 1 mM calcium, 15 min, Figure 2B)
1 | significantly decreased | dose‐dependently stimulated | – | – | osteocalcin (YLYQWLGAPVPYPDPLEPRREVCELNPDCDELADHIGFQEAYRRFYGPV; not fully specified; ends and bridges not checked; UniProt P02818 52-100, looked up) [Ocn 1–49, full human Ocn (49 aa) synthesized by BioMatik; methods also describe decarboxylated Ocn purified from bovine tibial bone, reference compound] | activated GPRC6A isoform 1 in a dose dependent manner
2 | – | – | partially activate | high activity | RFYGPV [Ocn 44–49, synthesized human Ocn C‐terminal hexapeptide] | –
3 | – | – | no response | high activity | REVCELNPDC (disulfide 4-10 (inferred)) [Ocn 20–29, synthesized human Ocn decapeptide fragment located in the middle of the protein] | –
